In assay [1] the test system is L1210. Put plainly: Growth inhibition of L1210 cells in culture. The format is functional, cell-based. The following applies: Mus musculus.
For a further assay, the target named is Thymidylate synthase (Mus musculus, UniProt P07607). As to the kind of experiment: Inhibition of partially purified thymidylate synthase (TS).
The test system of assay [2] is L1210. As to the kind of experiment: (§1) Percent control for L1210 cell growth in the presence of thymidine (in vitro). It counts as functional, Mus musculus. Also noted: concentration or dose not given beside the values.
The test system of assay [3] is L1210. The assay is described as §1. It counts as functional, Mus musculus.

IC50 and Control data for 38 compounds are collected here from ChEMBL document CHEMBL1125149, “Quinazoline antifolate thymidylate synthase inhibitors: benzoyl ring modifications in the C2-methyl series” (J Med Chem, 1990).

pIC50: −log10 of the molar value.

Sequence of Thymidylate synthase (P07607 whole entry): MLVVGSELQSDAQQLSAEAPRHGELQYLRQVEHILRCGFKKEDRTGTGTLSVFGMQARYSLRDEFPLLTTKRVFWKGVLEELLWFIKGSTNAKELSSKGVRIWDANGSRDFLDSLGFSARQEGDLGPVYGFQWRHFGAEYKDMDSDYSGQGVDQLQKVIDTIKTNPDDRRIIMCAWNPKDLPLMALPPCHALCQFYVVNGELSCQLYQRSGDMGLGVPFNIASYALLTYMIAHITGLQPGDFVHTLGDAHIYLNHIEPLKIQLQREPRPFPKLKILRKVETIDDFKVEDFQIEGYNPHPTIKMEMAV

As to `CCN(Cc1ccc2nc(C)[nH]c(=O)c2c1)c1ccc(C(=O)N[C@@H](CCC(=O)O)C(=O)O)c(OC)c1`, the values for the pIC50 with L1210 [1] and at Thymidylate synthase were 4.74 and 6.72, respectively.

`Cc1nc2ccc(CN(CCCO)c3ccc(C(=O)N[C@@H](CCC(=O)O)C(=O)O)cc3F)cc2c(=O)[nH]1`: the pIC50 (usually −log10 of the IC50, conventionally taken in molar units) is 6.77 in the assay with L1210 [1] and 6.01 against Thymidylate synthase.

As to `Cc1nc2ccc(CN(CCF)c3ccc(C(=O)N[C@@H](CCC(=O)O)C(=O)O)c(F)c3)cc2c(=O)[nH]1`, the Control with L1210 [2] was 98%. Moreover, the figures for the pIC50 in the assay with L1210 [1] and against Thymidylate synthase were 6.89 and 7.37, respectively.

Take `C=CCN(Cc1ccc2nc(C)[nH]c(=O)c2c1)c1ccc(C(=O)N[C@@H](CCC(=O)O)C(=O)O)cc1F`: the Control in the assay with L1210 [2] was 97%. Moreover, the pIC50 in the assay on L1210 [1] was 6.85; against Thymidylate synthase, 5.29.

Turning to `Cc1nc2ccc(CN(CCF)c3ccc(C(=O)N[C@@H](CCC(=O)O)C(=O)O)cc3F)cc2c(=O)[nH]1`, the pIC50 is 7.16 in the assay with L1210 [1] and 5.76 against Thymidylate synthase.

In the case of `C=CCN(Cc1ccc2nc(C)[nH]c(=O)c2c1)c1ccc(C(=O)N[C@@H](CCC(=O)O)C(=O)O)c(F)c1`, the Control in the assay with L1210 [2] is 97%. Also, the pIC50 in the assay with L1210 [1] is 7.00; against Thymidylate synthase, 7.12.

Take `C#CCN(Cc1ccc2nc(C)[nH]c(=O)c2c1)c1ccc(C(=O)N[C@@H](CCC(=O)O)C(=O)O)cc1F`: the Control with L1210 [2] is listed as 102%. The pIC50 was 7.28 in the assay with L1210 [1] and 5.84 against Thymidylate synthase.

In the case of `Cc1nc2ccc(CN(C)c3ccc(C(=O)N[C@@H](CCC(=O)O)C(=O)O)cc3F)cc2c(=O)[nH]1`, the pIC50 in the assay with L1210 [1] was 6.85; on Thymidylate synthase, 5.94. Also, in the assay on L1210 [3], the Control is listed as 92%.

With `C#CCN(Cc1ccc2nc(C)[nH]c(=O)c2c1)c1ccc(C(=O)N[C@@H](CCC(=O)O)C(=O)O)c(C(F)(F)F)c1`, the results for the pIC50 in the assay with L1210 [1] and against Thymidylate synthase were 5.92 and 6.32, respectively.

For `C#CCN(Cc1ccc2nc(C)[nH]c(=O)c2c1)c1ccc(C(=O)N[C@@H](CCC(=O)O)C(=O)O)c(N)c1`, the pIC50 in the assay with L1210 [1] is 6.44; against Thymidylate synthase, 6.54.

`C#CCN(Cc1ccc2nc(C)[nH]c(=O)c2c1)c1ccc(C(=O)N[C@@H](CCC(=O)O)C(=O)O)c(O)c1`: the Control with L1210 [2] is given as 77%. The pIC50 in the assay on L1210 [1] was 6.30; at Thymidylate synthase, 7.05.

Consider `C#CCN(Cc1ccc2nc(C)[nH]c(=O)c2c1)c1ccc(C(=O)N[C@@H](CCC(=O)O)C(=O)O)c(C)c1`, for which the Control in the assay with L1210 [2] turned out to be 97%. Further, the pIC50 is 6.44 with L1210 [1] and 6.30 against Thymidylate synthase.

On to `CCN(Cc1ccc2nc(C)[nH]c(=O)c2c1)c1ccc(C(=O)N[C@@H](CCC(=O)O)C(=O)O)c(N)c1`, for which the pIC50 with L1210 [1] was 5.89; against Thymidylate synthase, 6.51.

For `CCN(Cc1ccc2nc(C)[nH]c(=O)c2c1)c1ccc(C(=O)N[C@@H](CCC(=O)O)C(=O)O)cc1`, in the assay with L1210 [2], the Control worked out at 88%.

Consider `Cc1nc2ccc(CN(C)c3ccc(C(=O)N[C@@H](CCC(=O)O)C(=O)O)c(F)c3)cc2c(=O)[nH]1`, for which the Control in the assay on L1210 [2] amounted to 98%. Also, the figures for the pIC50 with L1210 [1] and at Thymidylate synthase were 7.72 and 6.92, respectively.

On to `Cc1nc2ccc(CNc3ccc(C(=O)N[C@@H](CCC(=O)O)C(=O)O)cc3F)cc2c(=O)[nH]1`, for which, in the assay on L1210 [2], the Control is 86%. Also, the pIC50 is 6.92 with L1210 [1] and 5.03 against Thymidylate synthase.

Turning to `Cc1nc2ccc(CN(CC#N)c3ccc(C(=O)N[C@@H](CCC(=O)O)C(=O)O)c(F)c3)cc2c(=O)[nH]1`, the Control with L1210 [2] was 90%. Also, the pIC50 in the assay on L1210 [1] was 7.47; against Thymidylate synthase, 6.77.

For the compound `Cc1nc2ccc(CN(CCO)c3ccc(C(=O)N[C@@H](CCC(=O)O)C(=O)O)c(F)c3)cc2c(=O)[nH]1`, the pIC50 is 7.15 with L1210 [1] and 7.11 against Thymidylate synthase.

With `Cc1nc2ccc(CN(C)c3ccc(C(=O)N[C@@H](CCC(=O)O)C(=O)O)cc3)cc2c(=O)[nH]1`, in the assay on L1210 [2], the Control is on record as 100%.

As to `C#CCN(Cc1ccc2nc(C)[nH]c(=O)c2c1)c1ccc(C(=O)N[C@@H](CCC(=O)O)C(=O)O)cc1`, the Control in the assay on L1210 [2] is 100%.

Regarding `CCN(Cc1ccc2nc(C)[nH]c(=O)c2c1)c1ccc(C(=O)N[C@@H](CCC(=O)O)C(=O)O)c([N+](=O)[O-])c1`, the pIC50 with L1210 [1] was 5.82; at Thymidylate synthase it was 6.84.

With `Cc1nc2ccc(CN(C)c3ccc(C(=O)N[C@@H](CCC(=O)O)C(=O)O)c(C)c3)cc2c(=O)[nH]1`, the pIC50 is 6.10 in the assay with L1210 [1] and 6.03 on Thymidylate synthase.

Regarding `C=CCN(Cc1ccc2nc(C)[nH]c(=O)c2c1)c1ccc(C(=O)N[C@@H](CCC(=O)O)C(=O)O)cc1`, the Control in the assay on L1210 [2] amounted to 104%.

Turning to `C#CCN(Cc1ccc2nc(C)[nH]c(=O)c2c1)c1ccc(C(=O)N[C@@H](CCC(=O)O)C(=O)O)c(F)c1`, in the assay on L1210 [2], the Control is given as 97%.

Turning to `CCN(Cc1ccc2nc(C)[nH]c(=O)c2c1)c1ccc(C(=O)N[C@@H](CCC(=O)O)C(=O)O)c(C)c1`, the Control with L1210 [2] worked out at 94%. Moreover, the pIC50 is 5.92 in the assay with L1210 [1] and 6.49 against Thymidylate synthase.

Take `Cc1nc2ccc(CN(CCN)c3ccc(C(=O)N[C@@H](CCC(=O)O)C(=O)O)c(F)c3)cc2c(=O)[nH]1`: the pIC50 with L1210 [1] is 5.57; on Thymidylate synthase it was 4.93.

Regarding `CCN(Cc1ccc2nc(C)[nH]c(=O)c2c1)c1ccc(C(=O)N[C@@H](CCC(=O)O)C(=O)O)c(F)c1`, the Control in the assay with L1210 [2] amounted to 96%. In addition, the pIC50 was 7.19 in the assay on L1210 [1] and 7.35 against Thymidylate synthase.

In the case of `C#CCN(Cc1ccc2nc(C)[nH]c(=O)c2c1)c1ccc(C(=O)N[C@@H](CCC(=O)O)C(=O)O)c(Cl)c1`, the pIC50 is 6.60 in the assay on L1210 [1] and 7.13 on Thymidylate synthase.

On to `Cc1nc2ccc(CN(CCCO)c3ccc(C(=O)N[C@@H](CCC(=O)O)C(=O)O)c(F)c3)cc2c(=O)[nH]1`, for which the Control in the assay with L1210 [2] came out at 95%. The pIC50 is 7.52 with L1210 [1] and 6.23 at Thymidylate synthase.

Turning to `C#CCN(Cc1ccc2nc(C)[nH]c(=O)c2c1)c1ccc(C(=O)N[C@@H](CCC(=O)O)C(=O)O)c([N+](=O)[O-])c1`, the pIC50 in the assay with L1210 [1] was 6.40; against Thymidylate synthase, 6.89.

Take `C#CCN(Cc1ccc2nc(C)[nH]c(=O)c2c1)c1ccc(C(=O)N[C@@H](CCC(=O)O)C(=O)O)c(OC)c1`: the Control in the assay on L1210 [2] was found to be 95%. For the same compound, the figures for the pIC50 in the assay on L1210 [1] and on Thymidylate synthase were 5.52 and 7.17, respectively.

Take `CCN(Cc1ccc2nc(C)[nH]c(=O)c2c1)c1ccc(C(=O)N[C@@H](CCC(=O)O)C(=O)O)cc1F`: the Control in the assay with L1210 [2] is listed as 96%. The pIC50 was 7.07 with L1210 [1] and 6.17 on Thymidylate synthase.

With `CCN(Cc1ccc2nc(C)[nH]c(=O)c2c1)c1ccc(C(=O)N[C@@H](CCC(=O)O)C(=O)O)c(Cl)c1`, the pIC50 in the assay on L1210 [1] was 6.06; on Thymidylate synthase it was 6.92.

Turning to `Cc1nc2ccc(CN(CCO)c3ccc(C(=O)N[C@@H](CCC(=O)O)C(=O)O)cc3F)cc2c(=O)[nH]1`, the Control in the assay with L1210 [2] is on record as 95%. Moreover, the pIC50 with L1210 [1] was 7.07; against Thymidylate synthase, 5.45.

Consider `Cc1nc2ccc(CN(CC(N)=O)c3ccc(C(=O)N[C@@H](CCC(=O)O)C(=O)O)c(F)c3)cc2c(=O)[nH]1`, for which the pIC50 in the assay with L1210 [1] was 6.10; at Thymidylate synthase, 5.87.

Regarding `Cc1nc2ccc(CN(CCCO)c3ccc(C(=O)N[C@@H](CCC(=O)O)C(=O)O)cc3)cc2c(=O)[nH]1`, in the assay on L1210 [2], the Control turned out to be 95%.

For `Cc1nc2ccc(CNc3ccc(C(=O)N[C@@H](CCC(=O)O)C(=O)O)c(F)c3)cc2c(=O)[nH]1`, the Control in the assay on L1210 [2] is given as 94%. In addition, the pIC50 in the assay with L1210 [1] is 7.19; on Thymidylate synthase, 5.42.

In the case of `Cc1nc2ccc(CN(C)c3ccc(C(=O)N[C@@H](CCC(=O)O)C(=O)O)c(N)c3)cc2c(=O)[nH]1`, the pIC50 is 6.12 in the assay on L1210 [1] and 6.07 against Thymidylate synthase.
